Experimental data from patent publication US20140024613A1, “Methods for Treating HCV” (AbbVie Inc., priority 2012, published 2014).

How the values were obtained:
[1] = design: species or system HCV patients (human); conditions: in vivo
Description: Ritonavir-boosted HIV protease inhibitors are associated with increases in serum lipids. See FIG. 1, where LPV refers to lopinavir, “/r” refers to co-administration with ritonavir (e.g., LPV/r refers to lopinavir co-administered with ritonavir). DRV refers to darunavir, ATV refers to atazanavir, FPV refers to fosamprenavir, FTC refers to emtricitabine, TDF refers to tenofovir disoproxil fumarate, […], 3TC refers to lamivudine, TC refers to total cholesterol, and TG refers to total triglycerides. These increase in cholesterol and triglycerides may be related to inhibition of the proteasome, which is involved in degradation of proteins related to lipid metabolism. However, the impact of ritonavir-boosted HCV treatments on lipid levels has not been studied. The purpose of this Example was to examine the lipid levels of HCV patients during 12 weeks of treatment with ritonavir-containing, interferon-free regimens. […]
Fasting total cholesterol (TC) and triglycerides (TG) were measured at each study visit. The number of subjects with baseline low or normal TC or TG who shifted to high TC or TG were calculated using NCEP cut-offs. Lipid fractions were not measured.

[2] = known effect of ritonavir, FDA approved Kaletra Drug Label May 2012; cited from earlier work

total cholesterol and triglyceride levels [1]: not elevated
SMILES: CC(C)c1nc(CN(C)C(=O)N[C@H](C(=O)N[C@@H](Cc2ccccc2)C[C@H](O)[C@H](Cc2ccccc2)NC(=O)OCc2cncs2)C(C)C)cs1 [ritonavir]
cholesterol and triglyceride levels [2]: elevated cholesterol and triglyceride levels
